Values quoted from earlier work, collected in publication PMC2948132 (The Open Cardiovascular Medicine Journal, 2010).

Legend:
[1] = tested on: complement-mediated ischemia/reperfusion injury
[2] = tested on: primate-derived complement; settings: reference not given
[3] = tested on: classical or alternative C3 convertase; settings: ref [19]-[22]

**Q.** For “TP20: soluble CR1 decorated with fucosylated tetrasaccharide sialyl Lewisx”, which “efficacy in animal models of transplantation and IR injury, in words” value ([1]; ref [11],[14],[49],[50]) is on record?
**A.** effective

**Q.** For Compstatin, which “species specificity of complement inhibition, in words” value [2] is on record?
**A.** only inhibits primate-derived complement

**Q.** What about the “C3 convertase inhibition, in words” value [3] of the same substance?
**A.** known to inhibit classical or alternative C3 convertase by preventing C3 cleavage

**Q.** Which “protection against IRI, in words” value ([1]; ref [45],[46]) does the source give for sCR1: Soluble complement receptor1 here?
**A.** successful in offering protection against IRI
